Measurements: US7326732B2, “EP2 receptor agonists” (Pharmagene Laboratories Limited, priority 2004, dated 2008)

Key:
human EP3 receptor = target: T1, human EP3 receptor (Homo sapiens, UniProt P43115); experiment: Binding ability to human EP receptors ([3H]PGE2 displacement), EP3; conditions: membranes expressing human EP3; [3H]PGE2 2.5 nM; Cheng-Prusoff; read-out: pKi (M) EP3 (converted)
T1 construct: expressed in transfected cells
T1 sequence (P43115 1-390): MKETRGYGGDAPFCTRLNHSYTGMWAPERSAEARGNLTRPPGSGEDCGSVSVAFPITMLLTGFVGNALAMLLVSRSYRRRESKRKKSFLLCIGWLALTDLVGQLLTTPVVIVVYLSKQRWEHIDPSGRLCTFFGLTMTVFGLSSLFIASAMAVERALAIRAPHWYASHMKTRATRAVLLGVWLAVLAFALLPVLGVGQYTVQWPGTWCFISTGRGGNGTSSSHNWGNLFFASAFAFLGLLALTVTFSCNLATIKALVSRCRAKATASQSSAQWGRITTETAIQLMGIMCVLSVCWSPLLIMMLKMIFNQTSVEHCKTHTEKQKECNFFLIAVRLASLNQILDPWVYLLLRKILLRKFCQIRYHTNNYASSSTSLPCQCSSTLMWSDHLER
Outline: (§1)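 Membranes from cells stably expressing human EP2, EP3 or EP4 incubated to equilibrium with [3H]PGE2 and compound at 0.1 to 10 000 nM. Non-specific binding defined with 10 uM PGE2; bound label separated by vacuum filtration and quantified by scintillation counting.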

[1] = target: T2, human EP2 prostanoid receptors (Homo sapiens, UniProt P43116); experiment: Agonist activity at recombinant human EP2 prostanoid receptors (cAMP in HEK-293 clones); format: cell-based; conditions: for EC50: HEK-293 stably transfected with human EP2, cAMP accumulation, read-out: pEC50 EP2 (converted); for activity (EP2 part): functional classification at EP2
T2 construct: expressed in transfected cells; host or cells: HEK-293
T2 sequence (P43116 whole entry): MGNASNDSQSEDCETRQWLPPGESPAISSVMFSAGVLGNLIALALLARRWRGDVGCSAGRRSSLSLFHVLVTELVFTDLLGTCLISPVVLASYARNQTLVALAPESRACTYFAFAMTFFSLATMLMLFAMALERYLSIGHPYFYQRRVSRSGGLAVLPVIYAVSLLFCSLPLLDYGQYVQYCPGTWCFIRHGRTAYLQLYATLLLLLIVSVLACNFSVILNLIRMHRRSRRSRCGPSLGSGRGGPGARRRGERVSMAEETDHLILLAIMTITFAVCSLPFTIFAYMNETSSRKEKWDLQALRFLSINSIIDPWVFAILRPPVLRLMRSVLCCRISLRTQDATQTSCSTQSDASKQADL

[2] = target: T3, human EP4 prostanoid receptors (Homo sapiens, UniProt P35408); experiment: Antagonist activity at EP4 prostanoid receptors (PGE2-stimulated cAMP in HEK-293 clones); format: cell-based; conditions: for Kb: HEK-293 stably transfected with human EP4, 30 min pre-incubation before PGE2, Gaddum-Schild, slope of unity, read-out: pA2 EP4 (converted); for activity (EP4 part): functional classification at EP4, second line of the activity cell
T3 construct: expressed in transfected cells; host or cells: HEK-293
T3 sequence (P35408 whole entry): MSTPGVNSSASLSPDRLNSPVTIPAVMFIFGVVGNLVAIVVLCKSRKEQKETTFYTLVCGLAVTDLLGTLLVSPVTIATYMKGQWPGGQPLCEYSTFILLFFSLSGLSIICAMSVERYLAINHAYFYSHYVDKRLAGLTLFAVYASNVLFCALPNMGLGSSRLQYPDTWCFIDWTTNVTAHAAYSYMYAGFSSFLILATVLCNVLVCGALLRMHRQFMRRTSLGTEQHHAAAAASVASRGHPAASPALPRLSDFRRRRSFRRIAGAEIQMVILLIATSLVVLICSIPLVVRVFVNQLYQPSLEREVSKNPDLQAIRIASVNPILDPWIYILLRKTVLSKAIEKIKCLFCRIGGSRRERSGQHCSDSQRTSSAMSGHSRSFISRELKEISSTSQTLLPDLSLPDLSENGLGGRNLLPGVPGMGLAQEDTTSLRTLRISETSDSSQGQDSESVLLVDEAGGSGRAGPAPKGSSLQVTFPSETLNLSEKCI
Experimental: Culture media was Minimal essential media (MEM), supplemented with 10% foetal bovine serum, 100 U/ml penicillin, […] streptomycin, 2.5 μg/ml fungizone, 2mM glutamine. Cells were cultured to confluency (3-4 days) prior to use. Culture media was removed, and confluent cells washed three times in MEM. […] Cells were then stimulated by the addition of 25 μl of PGE2 or agonists prepared in assay buffer. In antagonist studies, cells were pre-incubated with compounds for 30 minutes prior to PGE2-mediated stimulation Plates were incubated for 15 min at 37° C., before termination of the reaction by the addition of 25 μl 1M HCl. The plate was then frozen at -20° C. overnight before determination of cAMP concentration. Stimulated cAMP levels were determined by radioligand displacement binding. In brief, plates were thawed rapidly in a waterbath, and the samples neutralised by the addition of 25 μl 1M NaOH. 30 μl was transferred to Millipore plates pre-coated with 0.5% Polyethylenimine (PEI). Samples were diluted by addition of 90 μl cAMP determination buffer (50 mM Tris, 5 mM EDTA, pH 7.0). […] 15 μl of 2 nM (final concentration) [^3H] cAMP, and 15 μl of 3'5'-cAMP protein kinase (8 μg/well final concentration) prepared in cAMP determination buffer containing 0.1% BSA, were added to each well. Plates were incubated on ice for 2 hours, before bound and free radiolabel were separated by vacuum filtration harvesting using the Millipore vacuum manifold, using ice cold water as the termination buffer. The sealing mat was removed from the Millipore plates, and the filters allowed to dry overnight. 50 μl Microscint 0 (Packard Bioscience) was added to each well, and the plate counted using the Micro-Beta Trilux topcount ^3H program. cAMP accumulation was determined from the standard curve, and values calculated in pmoles cAMP/well. Antagonists affinities (pA2 values) were determined assuming a slope of unity and the […]-Schild equation, where pA2=log [concentration ratio-1]-log[antagonist].

human EP2 receptor = target: T4, human EP2 receptor (Homo sapiens, UniProt P43116); experiment: Binding ability to human EP receptors ([3H]PGE2 displacement), EP2; conditions: membranes expressing human EP2; [3H]PGE2 3 nM; Cheng-Prusoff; read-out: pKi (M) EP2 (converted)
T4 construct: expressed in transfected cells
T4 sequence (P43116 whole entry): as the sequence (P43116 whole entry) above
Outline: as §1

human EP4 receptor = target: T5, human EP4 receptor (Homo sapiens, UniProt P35408); experiment: Binding ability to human EP receptors ([3H]PGE2 displacement), EP4; conditions: membranes expressing human EP4; [3H]PGE2 1 nM; Cheng-Prusoff; read-out: pKi (M) EP4 (converted)
T5 construct: expressed in transfected cells
T5 sequence (P35408 whole entry): as the sequence (P35408 whole entry) above
Outline: as §1

| Structure (SMILES) | Ki (human EP3 receptor) [M] | EC50 [1] [nM] | activity (EP2 part) [1] | Kb [2] [nM] | activity (EP4 part) [2] | Ki (human EP2 receptor) [M] | Ki (human EP4 receptor) [M] |
| --- | --- | --- | --- | --- | --- | --- | --- |
| O=C(O)Cc1ccc(NC(=O)c2ccc(-c3ccccc3)o2)cc1 [Compound 2, {4-[(5-Phenyl-furan-2-carbonyl)-amino]-phenyl}-acetic acid] | > 1e-05 | < 10000 | EP2 agonist/ | < 10000 | EP4 antagonist | < 1e-05 | < 1e-05 |
| O=C(O)c1ccc(CNC(=O)c2ccc(-c3ccccc3)o2)cc1 [Compound 4, 4-{[(5-Phenyl-furan-2-carbonyl)-amino]-methyl}-benzoic acid] | > 1e-05 | < 10000 | EP2 agonist/ | < 10000 | EP4 antagonist | < 1e-05 | < 1e-05 |
| O=C(O)Cc1cccc(NC(=O)c2ccc(-c3cc(Cl)cc(Cl)c3)o2)c1 [Compound 26, (3-{[5-(3,5-Dichloro-phenyl)-furan-2-carbonyl]-amino}-phenyl)-acetic acid] | > 1e-05 | < 100 | EP2 agonist/ | < 1000 | EP4 antagonist | < 1e-07 | < 1e-07 |
| O=C(O)/C=C/c1cccc(NC(=O)c2ccc(-c3ccccc3)o2)c1 [Compound 61, 3-{3-[(5-Phenyl-furan-2-carbonyl)-amino]-phenyl}-acrylic acid] | > 1e-05 | < 100 | EP2 agonist/ | < 1000 | EP4 agonist | < 1e-07 | < 1e-06 |
| O=C(O)COc1cccc(NC(=O)c2ccc(-c3cccc(Cl)c3)o2)c1 [Compound 66, (3-{[5-(3-Chloro-phenyl)-furan-2-carbonyl]-amino}-phenoxy)-acetic acid] | > 1e-05 | < 100 | EP2 agonist/ | < 1000 | EP4 agonist | < 1e-07 | < 1e-06 |
| O=C(O)COc1cccc(NC(=O)c2ccc(-c3cc(Cl)cc(Cl)c3)o2)c1 [Compound 68, (3-{[5-(3,5-Dichloro-phenyl)-furan-2-carbonyl]-amino}-phenoxy)-acetic acid] | > 1e-05 | < 100 | EP2 agonist/ | < 1000 | EP4 antagonist | < 1e-07 | < 1e-06 |
| O=C(O)/C=C/c1cccc(NC(=O)c2ccc(-c3cccc(Cl)c3)o2)c1 [Compound 69, 3-(3-{[5-(3-Chloro-phenyl)-furan-2-carbonyl]-amino}-phenyl)-acrylic acid] | > 1e-05 |  | EP2 agonist/ |  | EP4 antagonist | < 1e-07 | < 1e-06 |
| O=C(O)/C=C/c1cccc(NC(=O)c2ccc(-c3cc(Cl)cc(Cl)c3)o2)c1 [Compound 70, 3-(3-{[5-(3,5-Dichloro-phenyl)-furan-2-carbonyl]-amino}-phenyl)-acrylic acid] | > 1e-05 |  | EP2 agonist/ |  | EP4 antagonist | < 1e-07 | < 1e-06 |
| O=C(O)c1cc2cc(NC(=O)c3ccc(-c4cccc(Cl)c4)o3)ccc2[nH]1 [Compound 72, 5-{[5-(3-Chloro-phenyl)-furan-2-carbonyl]-amino}-1H-indole-2-carboxylic acid] | > 1e-05 | < 1000 | EP2 agonist/ | < 1000 | EP4 antagonist | < 1e-06 | < 1e-05 |
| O=C(O)CCc1cccc(NC(=O)c2ccc(-c3cccc(Cl)c3)o2)c1 [Compound 125, 3-(3-{[5-(3-Chloro-phenyl)-furan-2-carbonyl]-amino}-phenyl)-propionic acid] | > 1e-05 | < 100 | EP2 Agonist/ | < 10000 | EP4 Antagonist | < 1e-07 | < 1e-05 |
| O=C(O)CCc1cccc(NC(=O)c2ccc(-c3cc(Cl)cc(Cl)c3)o2)c1 [Compound 126, 3-(3-{[5-(3,5-Dichloro-phenyl)-furan-2-carbonyl]-amino}-phenyl)-propionic acid] | > 1e-05 | < 100 | EP2 Agonist/ | < 1000 | EP4 Antagonist | < 1e-07 | < 1e-06 |
| O=C(O)Cc1cccc(NC(=O)c2cccc(-c3cccc(Cl)c3)n2)c1 [Compound 129, (3-{[6-(3-Chloro-phenyl)-pyridine-2-carbonyl]-amino}-phenyl)-acetic acid] | > 1e-05 | < 100 | EP2 Agonist/ | < 1000 | EP4 Antagonist | < 1e-07 | < 1e-06 |
| O=C(O)Cc1cccc(NC(=O)c2cccc(-c3cc(Cl)cc(Cl)c3)n2)c1 [Compound 130, (3-{[6-(3,5-Dichloro-phenyl)-pyridine-2-carbonyl]-amino}-phenyl)-acetic acid] | > 1e-05 | < 100 | EP2 Agonist/ | < 1000 | EP4 Antagonist | < 1e-07 | < 1e-06 |
| O=C(O)COc1cccc(NC(=O)c2cccc(-c3cc(Cl)cc(Cl)c3)n2)c1 [Compound 133, (3-{[6-(3,5-Dichloro-phenyl)-pyridine-2-carbonyl]-amino}-phenoxy)-acetic acid] | > 1e-05 | < 100 | EP2 Agonist/ | < 100 | EP4 Agonist | < 1e-07 | < 1e-06 |
| O=C(O)COc1cccc(NC(=O)c2cccc(-c3cccc(Cl)c3)n2)c1 [Compound 138, (3-{[6-(3-Chloro-phenyl)-pyridine-2-carbonyl]-amino}-phenoxy)-acetic acid] | > 1e-05 | < 100 | EP2 Agonist/ | < 1000 | EP4 Agonist | < 1e-07 | < 1e-07 |
| O=C(O)/C=C/c1cccc(NC(=O)c2cc(-c3cc(Cl)cc(Cl)c3)ccc2F)c1 [Compound 144, 3-{3-[(3′,5′-Dichloro-4-fluoro-biphenyl-3-carbonyl)-amino]-phenyl}-acrylic acid] | > 1e-05 | < 100 | EP2 Agonist | < 1000 |  | < 1e-07 | < 1e-06 |
| O=C(Nc1cccc(-c2nnn[nH]2)c1)c1ccc(-c2ccccc2)o1 [Compound 177, 5-Phenyl-furan-2-carboxylic acid [3-(1H-tetrazol-5-yl)-phenyl]-amide] | > 1e-05 | < 1000 | EP2 Agonist |  |  | < 1e-06 | > 1e-05 |
| O=C(O)/C=C/c1cccc(NC(=O)c2cccc(-c3ccccc3)n2)c1 [Compound 178, 3-{3-[(6-Phenyl-pyridine-2-carbonyl)-amino]-phenyl}-acrylic acid] | > 1e-05 | < 100 | EP2 Agonist/ | < 1000 | EP4 Agonist | < 1e-07 | < 1e-07 |
